The values that follow come from PMC11951083, “Highly Specific Miniaturized Fluorescent Monoacylglycerol Lipase Probes Enable Translational Research” (Journal of the American Chemical Society, 2025).

One experiment deals with GSK3beta (h) (Homo sapiens, UniProt P49841). Briefly: GSK3beta (h). The following applies: read-out: Inhibition GSK3beta (h).
Another experiment concerns the target Abl kinase (h) (Homo sapiens, UniProt P00519). Briefly: Abl kinase (h). To be noted: read-out: Inhibition Abl kinase (h).
Another experiment concerns the target T1, ZAP70 kinase (h) (Homo sapiens, UniProt P43403).
T1 sequence (P43403 1-619): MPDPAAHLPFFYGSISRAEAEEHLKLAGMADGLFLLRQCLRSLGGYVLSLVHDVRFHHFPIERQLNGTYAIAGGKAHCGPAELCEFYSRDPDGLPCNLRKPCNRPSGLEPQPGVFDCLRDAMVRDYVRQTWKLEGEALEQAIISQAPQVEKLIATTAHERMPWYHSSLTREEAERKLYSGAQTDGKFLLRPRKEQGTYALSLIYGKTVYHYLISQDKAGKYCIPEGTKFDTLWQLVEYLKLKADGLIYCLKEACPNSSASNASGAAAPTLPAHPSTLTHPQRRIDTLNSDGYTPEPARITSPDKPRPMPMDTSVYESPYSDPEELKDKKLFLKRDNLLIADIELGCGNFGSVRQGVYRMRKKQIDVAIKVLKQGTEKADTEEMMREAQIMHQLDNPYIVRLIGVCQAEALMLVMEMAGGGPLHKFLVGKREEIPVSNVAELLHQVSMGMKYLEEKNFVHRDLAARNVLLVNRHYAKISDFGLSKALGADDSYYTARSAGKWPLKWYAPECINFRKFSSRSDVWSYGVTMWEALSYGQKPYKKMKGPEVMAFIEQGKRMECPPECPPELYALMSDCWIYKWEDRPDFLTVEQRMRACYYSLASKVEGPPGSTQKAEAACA
The experiment can be described thus: ZAP70 kinase (h). To be noted: read-out: Inhibition ZAP70 kinase (h).

In a further experiment the target is T2, GR (h) (Homo sapiens, UniProt P04150).
T2 sequence (P04150 1-777): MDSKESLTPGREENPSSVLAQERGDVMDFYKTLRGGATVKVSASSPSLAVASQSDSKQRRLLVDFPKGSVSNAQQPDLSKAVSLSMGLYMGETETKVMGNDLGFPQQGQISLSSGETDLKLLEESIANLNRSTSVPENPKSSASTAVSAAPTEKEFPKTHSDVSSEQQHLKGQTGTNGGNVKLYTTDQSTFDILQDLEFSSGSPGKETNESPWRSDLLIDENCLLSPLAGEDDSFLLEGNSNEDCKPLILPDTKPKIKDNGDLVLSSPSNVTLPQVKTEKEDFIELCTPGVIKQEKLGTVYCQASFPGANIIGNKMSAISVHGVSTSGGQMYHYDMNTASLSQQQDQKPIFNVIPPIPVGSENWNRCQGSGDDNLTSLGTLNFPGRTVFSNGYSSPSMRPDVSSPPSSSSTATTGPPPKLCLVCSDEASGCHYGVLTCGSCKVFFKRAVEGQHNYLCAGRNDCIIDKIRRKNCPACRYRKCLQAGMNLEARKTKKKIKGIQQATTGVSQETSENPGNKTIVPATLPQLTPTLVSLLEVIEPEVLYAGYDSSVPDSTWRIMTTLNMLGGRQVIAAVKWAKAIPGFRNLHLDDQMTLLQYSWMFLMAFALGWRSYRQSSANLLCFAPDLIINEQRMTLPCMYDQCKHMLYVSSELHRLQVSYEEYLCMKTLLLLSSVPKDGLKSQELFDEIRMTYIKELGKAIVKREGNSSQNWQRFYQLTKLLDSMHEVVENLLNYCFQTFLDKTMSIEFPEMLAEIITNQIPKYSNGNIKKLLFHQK
The experiment can be described thus: GR (h) (agonist radioligand). To be noted: read-out: Inhibition GR (h) (agonist radioligand).

The target in the next experiment is beta2 (h) (Homo sapiens, UniProt P07550). The experiment can be described thus: beta2 (h) (antagonist radioligand). To be noted: read-out: Inhibition beta2 (h) (antagonist radioligand).
The target of another experiment is T3, PPARgamma (h) (Homo sapiens, UniProt P37231).
T3 sequence (P37231 1-505): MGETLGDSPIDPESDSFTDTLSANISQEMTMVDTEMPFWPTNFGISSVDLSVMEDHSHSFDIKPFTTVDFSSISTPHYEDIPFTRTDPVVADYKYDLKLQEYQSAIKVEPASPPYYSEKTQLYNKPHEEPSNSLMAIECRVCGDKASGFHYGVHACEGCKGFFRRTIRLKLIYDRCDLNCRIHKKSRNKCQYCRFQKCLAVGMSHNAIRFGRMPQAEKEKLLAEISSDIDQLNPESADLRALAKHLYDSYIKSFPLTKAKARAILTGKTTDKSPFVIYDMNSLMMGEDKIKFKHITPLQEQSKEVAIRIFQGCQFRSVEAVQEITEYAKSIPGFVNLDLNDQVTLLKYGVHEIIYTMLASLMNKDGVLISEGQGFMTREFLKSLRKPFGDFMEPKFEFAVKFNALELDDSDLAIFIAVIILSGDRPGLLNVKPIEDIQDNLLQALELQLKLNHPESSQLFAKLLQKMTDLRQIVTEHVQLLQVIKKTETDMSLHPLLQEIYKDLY
Briefly: PPARgamma (h) (agonist radioligand). To be noted: read-out: Inhibition PPARgamma (h) (agonist radioligand).

For another experiment, the target named is T4, CCK1 (CCKA) (h) (Homo sapiens, UniProt P32238).
T4 sequence (P32238 1-428): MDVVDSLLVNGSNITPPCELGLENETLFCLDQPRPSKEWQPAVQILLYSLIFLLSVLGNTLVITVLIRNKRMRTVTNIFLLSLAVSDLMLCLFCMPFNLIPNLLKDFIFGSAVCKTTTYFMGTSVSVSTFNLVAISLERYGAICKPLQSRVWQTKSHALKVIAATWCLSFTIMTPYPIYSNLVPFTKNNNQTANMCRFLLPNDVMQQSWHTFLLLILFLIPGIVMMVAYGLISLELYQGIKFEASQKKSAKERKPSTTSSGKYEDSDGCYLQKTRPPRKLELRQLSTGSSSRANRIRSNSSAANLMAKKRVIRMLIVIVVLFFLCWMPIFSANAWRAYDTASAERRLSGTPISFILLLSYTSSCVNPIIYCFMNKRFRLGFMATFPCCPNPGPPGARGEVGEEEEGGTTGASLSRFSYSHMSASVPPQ
The experiment can be described thus: CCK1 (CCKA) (h) (agonist radioligand). The following applies: read-out: Inhibition CCK1 (CCKA) (h) (agonist radioligand).

Another experiment addresses Estrogen ER alpha (h) (Homo sapiens, UniProt P03372). Briefly: Estrogen ER alpha (h) (agonist radioligand). To be noted: read-out: Inhibition Estrogen ER alpha (h) (agonist radioligand).

Abl kinase (h), sequence (P00519 whole entry): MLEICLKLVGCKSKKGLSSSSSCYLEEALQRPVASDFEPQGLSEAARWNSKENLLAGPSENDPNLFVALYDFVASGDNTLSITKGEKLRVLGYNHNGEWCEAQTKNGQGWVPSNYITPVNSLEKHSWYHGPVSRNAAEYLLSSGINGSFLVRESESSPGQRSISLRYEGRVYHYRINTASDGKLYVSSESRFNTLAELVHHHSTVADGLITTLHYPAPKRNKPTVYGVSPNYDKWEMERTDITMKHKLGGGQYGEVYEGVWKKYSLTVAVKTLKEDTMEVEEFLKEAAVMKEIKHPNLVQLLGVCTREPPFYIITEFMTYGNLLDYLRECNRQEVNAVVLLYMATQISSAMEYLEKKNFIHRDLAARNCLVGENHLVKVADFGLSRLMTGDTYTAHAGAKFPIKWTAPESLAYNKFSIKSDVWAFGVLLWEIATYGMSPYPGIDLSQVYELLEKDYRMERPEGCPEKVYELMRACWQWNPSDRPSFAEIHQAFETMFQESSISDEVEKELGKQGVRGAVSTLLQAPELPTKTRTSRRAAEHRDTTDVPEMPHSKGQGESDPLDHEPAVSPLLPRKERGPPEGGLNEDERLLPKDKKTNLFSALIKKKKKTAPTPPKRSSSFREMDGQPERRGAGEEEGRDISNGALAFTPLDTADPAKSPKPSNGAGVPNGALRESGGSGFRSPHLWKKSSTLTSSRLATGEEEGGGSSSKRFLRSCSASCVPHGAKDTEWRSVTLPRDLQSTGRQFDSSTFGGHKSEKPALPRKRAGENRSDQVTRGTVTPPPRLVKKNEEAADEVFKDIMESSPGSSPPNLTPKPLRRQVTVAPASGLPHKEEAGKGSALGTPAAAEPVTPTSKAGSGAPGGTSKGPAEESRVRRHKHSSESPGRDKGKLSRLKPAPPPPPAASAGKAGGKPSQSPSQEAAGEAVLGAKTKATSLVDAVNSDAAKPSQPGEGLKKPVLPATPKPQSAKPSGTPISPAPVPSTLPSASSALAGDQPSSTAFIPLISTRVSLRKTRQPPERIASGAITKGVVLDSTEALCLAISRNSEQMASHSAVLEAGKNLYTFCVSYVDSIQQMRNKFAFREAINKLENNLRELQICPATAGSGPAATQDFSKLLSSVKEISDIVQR
beta2 (h), sequence (P07550 whole entry): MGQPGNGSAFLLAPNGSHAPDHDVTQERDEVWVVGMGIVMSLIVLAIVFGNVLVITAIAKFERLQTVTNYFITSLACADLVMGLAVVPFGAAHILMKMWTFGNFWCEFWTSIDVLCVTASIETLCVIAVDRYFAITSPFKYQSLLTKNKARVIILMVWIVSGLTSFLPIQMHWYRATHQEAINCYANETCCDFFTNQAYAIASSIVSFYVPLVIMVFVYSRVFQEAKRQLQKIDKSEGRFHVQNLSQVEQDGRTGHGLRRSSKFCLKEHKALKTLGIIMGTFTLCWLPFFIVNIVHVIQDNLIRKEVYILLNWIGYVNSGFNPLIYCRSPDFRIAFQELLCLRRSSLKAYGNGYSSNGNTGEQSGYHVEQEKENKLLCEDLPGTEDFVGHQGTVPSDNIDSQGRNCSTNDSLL
GSK3beta (h), sequence (P49841 whole entry): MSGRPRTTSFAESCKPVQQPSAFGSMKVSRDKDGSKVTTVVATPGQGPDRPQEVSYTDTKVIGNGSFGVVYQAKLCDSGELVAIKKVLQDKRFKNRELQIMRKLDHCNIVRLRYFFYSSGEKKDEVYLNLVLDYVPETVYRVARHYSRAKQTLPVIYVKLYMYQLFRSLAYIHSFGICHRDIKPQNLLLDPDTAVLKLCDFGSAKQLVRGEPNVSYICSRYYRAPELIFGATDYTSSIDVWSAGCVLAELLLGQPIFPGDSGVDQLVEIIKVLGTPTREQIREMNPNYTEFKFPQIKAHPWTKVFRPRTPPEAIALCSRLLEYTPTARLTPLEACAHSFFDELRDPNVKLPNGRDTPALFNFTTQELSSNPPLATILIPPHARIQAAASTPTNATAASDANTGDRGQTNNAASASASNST
Estrogen ER alpha (h), sequence (P03372 whole entry): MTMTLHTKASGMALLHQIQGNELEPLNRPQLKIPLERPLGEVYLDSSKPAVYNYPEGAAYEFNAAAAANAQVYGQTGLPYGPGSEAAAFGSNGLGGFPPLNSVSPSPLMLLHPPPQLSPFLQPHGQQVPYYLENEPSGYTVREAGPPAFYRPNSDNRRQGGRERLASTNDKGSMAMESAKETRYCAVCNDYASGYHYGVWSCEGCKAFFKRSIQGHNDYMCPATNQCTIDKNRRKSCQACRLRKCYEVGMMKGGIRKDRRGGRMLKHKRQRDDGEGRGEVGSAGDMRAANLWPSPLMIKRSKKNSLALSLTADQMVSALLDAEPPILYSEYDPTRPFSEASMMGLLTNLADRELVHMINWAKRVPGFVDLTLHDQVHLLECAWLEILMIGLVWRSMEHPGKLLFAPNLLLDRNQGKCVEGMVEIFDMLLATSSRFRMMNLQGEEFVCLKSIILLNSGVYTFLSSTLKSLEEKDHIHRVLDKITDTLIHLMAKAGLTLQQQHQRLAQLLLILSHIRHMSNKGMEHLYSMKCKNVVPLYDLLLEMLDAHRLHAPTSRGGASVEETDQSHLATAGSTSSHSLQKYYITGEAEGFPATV

Turning to `O=C(O[C@H](CO)C(F)(F)F)N1CC2(CC(CC3=C4C=CC=[N+]4[B-](F)(F)n4cccc43)C2)C1` [Compound 1], the inhibition at 10 µM was 3.2% on GSK3beta (h); -1.9% on Abl kinase (h); 4.3% on ZAP70 kinase (h); 13.9% at GR (h); -3.1% at beta2 (h); 74.3% at PPARgamma (h). Besides, the results for the inhibition at 10 µM on CCK1 (CCKA) (h) and at Estrogen ER alpha (h) were -3.8% and 17.8%, respectively.

As for `O=C(OC(C(F)(F)F)C(F)(F)F)N1CC2(CC(CC3=C4C=CC=[N+]4[B-](F)(F)n4cccc43)C2)C1` [Compound 2], the inhibition at 10 µM at GSK3beta (h) was -1.7%; on Abl kinase (h), -10.5%; at ZAP70 kinase (h), -2%; on GR (h), 9.1%; at beta2 (h) it was -0.6%; at PPARgamma (h), 56.3%. In addition, the values for the inhibition at 10 µM at CCK1 (CCKA) (h) and at Estrogen ER alpha (h) were -8.8% and -0.8%, respectively.

For `O=C(OC(C(F)(F)F)C(F)(F)F)N1CC2(CC(CC3=C4C=CC(c5ccc[nH]5)=[N+]4[B-](F)(F)n4cccc43)C2)C1` [Compound 2a], the inhibition at 10 µM is -1.5% on GSK3beta (h); -2.9% at Abl kinase (h); 2.3% at ZAP70 kinase (h); 26.3% at GR (h); 1.8% on beta2 (h); 20% on PPARgamma (h). For the same molecule, the inhibition at 10 µM on CCK1 (CCKA) (h) is 11.9%; on Estrogen ER alpha (h), -13.7%.

In the case of `O=C1CO[C@H]2CCN(C(=O)N3CC4(CC(CC5=C6C=CC(c7ccc[nH]7)=[N+]6[B-](F)(F)n6cccc65)C4)C3)C[C@H]2N1` [Compound 4a], the inhibition at 10 µM at GSK3beta (h) was -15%; on Abl kinase (h), -53.1%; at ZAP70 kinase (h) it was 5.4%; at GR (h), 48.1%; at beta2 (h), -6.2%; on PPARgamma (h) it was 20%. Also, the values for the inhibition at 10 µM at CCK1 (CCKA) (h) and at Estrogen ER alpha (h) were -22.1% and -2.5%, respectively.

For `O=C(N1CC2(CC(CC3=C4C=CC=[N+]4[B-](F)(F)n4cccc43)C2)C1)N1CC2(CC(n3cnc(C4CC4)n3)C2)C1` [Compound 5], the inhibition at 10 µM is -1.2% on GSK3beta (h); 25.6% at Abl kinase (h); 6.9% on ZAP70 kinase (h); 17.1% at GR (h); 5.4% at beta2 (h); 5.6% at PPARgamma (h). Besides, the values for the inhibition at 10 µM on CCK1 (CCKA) (h) and on Estrogen ER alpha (h) were -24.7% and 35%, respectively.
